According to EP0613890A1, “Novel triazole compound, process for preparing the same and antifungal agent containing the same” (NIHON NOHYAKU CO., LTD., priority 1993, dated 1994):

Legend:
[1] = tested on: Candida albicans IFO 1270; assay: Survival of mice intravenously inoculated with Candida albicans, oral treatment (Test Example 2); assay type: in vivo; details: male ddy mice, i.v. Candida albicans IFO 1270 (1 x 10⁸ cells/kg); 10 mg/kg orally once a day for three days; 10th day from inoculation
Method: Six-week-old male ddy mice were used as test animals (10 animals per control group; 5 animals per test group). Each animal was intravenously inoculated with Candida albicans IFO 1270 (1 x 10⁸ cells/kg) which has been subcultured on Sabouraud's glucose agar at 37 °C for 24 hours.
After the inoculation, each test compound was orally administered at a dosage of 10 mg/kg to the animal once a day for consecutive three days.
On the 10th day from the inoculation, the survival rate was monitored.

[2] = tested on: Candida albicans IFO 1270; assay: Growth inhibition of Candida albicans in Sabouraud's glucose broth (Test Example 1); assay type: cell-based; details: Candida albicans IFO 1270, Sabouraud's glucose broth
Method: To 9.8 mℓ of Sabouraud's glucose broth, 0.1 mℓ of cell suspension of Candida albicans IFO 1270 (1.0 x 10⁷ cells/mℓ) and 0.1 mℓ of test compound solution (1000 or 10 µg/mℓ) was added. The growth inhibition ratio (%) was determined. For comparison, cis-1-acetyl-4-[4-[[2-(2,4-dichrolophenyl)-2-(imidazol-1-ylmethyl)-1,3-dioxolan-4-yl]methoxy]phenyl]piperazine (Ketoconazole) was used as a reference compound (hereinafter referred to as compound A).

Row | Structure (SMILES) | Rate of Survival (%) [1] [%] | Growth Inhibition (%) ([2]; 0.1 µg/mℓ) | Growth Inhibition (%) ([2]; 10 µg/mℓ)
1 | C/C(=C\c1ccccn1)C(O)(Cn1cncn1)c1ccc(F)cc1F (racemic) [compound 9] | 20 | 72 | 84
2 | C/C(=C\Sc1ccc(F)cc1)C(O)(Cn1cncn1)c1ccc(F)cc1 (racemic) [compound 30] | 40 | 11 | 83
3 | C/C(=C\c1cccs1)C(O)(Cn1cncn1)c1ccc(F)cc1F (racemic) [compound 10] | 40 | 13 | 62
4 | C/C(=C\c1ccc(C(=O)N2CCOCC2)cc1)C(O)(Cn1cncn1)c1ccc(F)cc1F (racemic) [Compound No. 3] | 40 | 0 | 76
5 | C/C(=C\c1ccc(OCC(F)(F)C(F)F)cc1)C(O)(Cn1cncn1)c1ccc(F)cc1F (racemic) [compound 7] | 100 | 60 | 86
6 | C/C(=C\c1ccc(C#N)cc1)C(O)(Cn1cncn1)c1ccc(F)cc1F (racemic) [Compound No. 5, 2-(2,4-Difluorophenyl)-2-[1-methyl-2(4-cyanophenyl)ethenyl]-1-triazolyl-2-ethanol] | 100 | 72 | 96
7 | C/C(=C\c1ccc(CO)cc1)C(O)(Cn1cncn1)c1ccc(F)cc1F (racemic) [compound 4] | 40 | 8 | 65
8 | CC(=O)N1CCN(c2ccc(OC[C@H]3CO[C@](Cn4ccnc4)(c4ccc(Cl)cc4Cl)O3)cc2)CC1 (relative stereo) [compound A, cis-1-acetyl-4-[4-[[2-(2,4-dichrolophenyl)-2-(imidazol-1-ylmethyl)-1,3-dioxolan-4-yl]methoxy]phenyl]piperazine, reference compound] | 20 | 62 | 76
9 | C/C(=C\c1ccc(-c2nc[nH]n2)cc1)C(O)(Cn1cncn1)c1ccc(F)cc1F (racemic) [compound 23] | – | 8 | 67
10 | CC(=Cn1cncn1)C(O)(Cn1cncn1)c1ccc(F)cc1 (centres unmarked) [Compound No. 14] | 100 | – | –
11 | C/C(=C\c1ccc(SC(C)(C)C)cc1)C(O)(Cn1cncn1)c1ccc(F)cc1F (racemic) [compound 26] | – | 48 | 67
12 | C/C(=C\c1ccc(C(=O)NNC=O)cc1)C(O)(Cn1cncn1)c1ccc(F)cc1F (racemic) [compound 15] | 60 | 3 | 55
13 | C/C(=C\c1ccc(OC(F)(F)F)cc1)C(O)(Cn1cncn1)c1ccc(F)cc1F (racemic) [Compound No. 6, 2-(2,4-Difluorophenyl)-2-[1-methyl-2-(4-trifluoromethoxyphenyl)ethenyl]-1-triazolyl-2-ethanol] | 100 | 63 | 86
14 | C/C(=C\C=C\c1ccc(C(F)(F)F)cc1)C(O)(Cn1cncn1)c1ccc(F)cc1F (racemic) [compound 37] | 100 | 50 | 78
15 | C/C(=C\C#Cc1ccc(F)cc1)C(O)(Cn1cncn1)c1ccc(F)cc1F (racemic) [compound 36] | 100 | 71 | 78
